From ChEMBL document CHEMBL1201862, “PubChem BioAssay data set” (2004)
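In this assay, cells in 96-well plates receive the compound at five concentrations for 48 hours. Endpoints are linearly interpolated between the surrounding concentrations. GI50 = concentration required for 50% inhibition of growth.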 Active and inactive are the calls of the source. Rule as the data show it: active = GI50 up to about 1.1 µM and inactive = higher.

Columns and labels:
Test in all cases: NCI tumour cell line growth inhibition, 48 h
A549 = tested on: A549
ACHN = tested on: ACHN
CCRF-CEM = tested on: CCRF-CEM
EKVX = tested on: EKVX
HOP-92 = tested on: HOP-92
Hs-578T = tested on: Hs-578T
K562 = tested on: K562
KM12 = tested on: KM12
LOX IMVI = tested on: LOX IMVI
M14 = tested on: M14
MCF7 = tested on: MCF7
MDA-MB-231 = tested on: MDA-MB-231
MDA-N = tested on: MDA-N
NCI-H226 = tested on: NCI-H226
NCI-H23 = tested on: NCI-H23
OVCAR-3 = tested on: OVCAR-3
SNB-19 = tested on: SNB-19
T47D = tested on: T47D
UACC-257 = tested on: UACC-257
UO-31 = tested on: UO-31

Compound	GI50 (A549)	GI50 (ACHN)	GI50 (CCRF-CEM)	GI50 (EKVX)	GI50 (HOP-92)	GI50 (Hs-578T)	GI50 (K562)	GI50 (KM12)	GI50 (LOX IMVI)	GI50 (M14)	GI50 (MCF7)	GI50 (MDA-MB-231)	GI50 (MDA-N)	GI50 (NCI-H226)	GI50 (NCI-H23)	GI50 (OVCAR-3)	GI50 (SNB-19)	GI50 (T47D)	GI50 (UACC-257)	GI50 (UO-31)
Cc1ccc2c(/C=C/c3ccc(N(C)C)cc3)ccnc2c1C	49.8 µM (inactive)	25.8 µM (inactive)	32.9 µM (inactive)	40.4 µM (inactive)	15.1 µM (inactive)	43.2 µM (inactive)	6.81 µM (inactive)	6.78 µM (inactive)	28.5 µM (inactive)	51.4 µM (inactive)	15.7 µM (inactive)	16.6 µM (inactive)	3.99 µM (inactive)	30.5 µM (inactive)	55.3 µM (inactive)	32.4 µM (inactive)	> 100 µM (inactive)	21.1 µM (inactive)	26.8 µM (inactive)	19.3 µM (inactive)
CN(C)CCOc1ccc(-c2c(Oc3ccccc3)c(=O)oc3ccccc23)cc1	4.15 µM (inactive)	11.9 µM (inactive)	0.459 µM (active)	13.9 µM (inactive)	17.2 µM (inactive)	17.8 µM (inactive)	2.39 µM (inactive)	21.4 µM (inactive)	13.1 µM (inactive)	2.23 µM (inactive)	4.66 µM (inactive)	4.93 µM (inactive)	2.19 µM (inactive)	16 µM (inactive)	14.1 µM (inactive)	12.4 µM (inactive)	8.02 µM (inactive)	12.7 µM (inactive)	6.67 µM (inactive)	7.33 µM (inactive)
COC(=O)C(Cc1c[nH]c2ccccc12)NC(=O)c1ccc(-c2ccc(Cl)cc2Cl)o1 (stereo not given)	34.9 µM (inactive)	38.4 µM (inactive)	20.6 µM (inactive)	27.4 µM (inactive)	17.5 µM (inactive)	> 100 µM (inactive)	26 µM (inactive)	60 µM (inactive)	53 µM (inactive)	64 µM (inactive)	24.4 µM (inactive)	15.5 µM (inactive)	48.2 µM (inactive)	91.4 µM (inactive)	73.3 µM (inactive)	36.4 µM (inactive)	> 100 µM (inactive)	27.5 µM (inactive)	16.9 µM (inactive)	45.4 µM (inactive)
CCOC(=O)CCC(NC(=O)c1ccc(OCc2ccc3nc(-c4ccccc4)c(Cl)nc3c2)cc1)C(=O)OCC (stereo not given)	19.5 µM (inactive)	26.9 µM (inactive)	> 31.6 µM (inactive)	19.9 µM (inactive)	15.6 µM (inactive)	14.9 µM (inactive)	3.88 µM (inactive)	> 31.6 µM (inactive)	> 100 µM (inactive)	> 31.6 µM (inactive)	27.4 µM (inactive)	24.3 µM (inactive)	> 100 µM (inactive)	19.2 µM (inactive)	17.2 µM (inactive)	> 31.6 µM (inactive)	17.3 µM (inactive)	16.6 µM (inactive)	> 31.6 µM (inactive)	> 31.6 µM (inactive)
CC1C[C@]2(C)C(=O)Nc3ccccc3[C@@H]2Nc2ccccc21 (stereo not given in full)	25.1 µM (inactive)	27.1 µM (inactive)	30.5 µM (inactive)	19.9 µM (inactive)	1.95 µM (inactive)	20 µM (inactive)	32.9 µM (inactive)	17.9 µM (inactive)	16.3 µM (inactive)	26.1 µM (inactive)	21 µM (inactive)	16.3 µM (inactive)	28.8 µM (inactive)	26.1 µM (inactive)	19.5 µM (inactive)	17.8 µM (inactive)	21.8 µM (inactive)	42.5 µM (inactive)	15.6 µM (inactive)	50 µM (inactive)
COC(=O)[C@H](C)N(C)C(=O)[C@H](C)N1[C@@H](c2ccccc2)COC1(C)C	> 100 µM (inactive)	> 100 µM (inactive)	> 100 µM (inactive)	> 100 µM (inactive)	> 100 µM (inactive)	> 100 µM (inactive)	> 100 µM (inactive)	> 100 µM (inactive)	> 100 µM (inactive)	> 100 µM (inactive)	> 100 µM (inactive)	> 100 µM (inactive)	> 100 µM (inactive)	> 100 µM (inactive)	> 100 µM (inactive)	> 100 µM (inactive)	> 100 µM (inactive)	> 100 µM (inactive)	> 100 µM (inactive)	> 100 µM (inactive)
COC(=O)C1(Cc2ccc3c(c2)CCC3)Cc2cc3c(cc2C1)CCC3	28.6 µM (inactive)	38.3 µM (inactive)	19.3 µM (inactive)	45.2 µM (inactive)	25.8 µM (inactive)	65.6 µM (inactive)	30.5 µM (inactive)	33.2 µM (inactive)	18.7 µM (inactive)	35.2 µM (inactive)	22.5 µM (inactive)	22.9 µM (inactive)	40.6 µM (inactive)	33.7 µM (inactive)	27.3 µM (inactive)	45.6 µM (inactive)	68.1 µM (inactive)	21.4 µM (inactive)	19.5 µM (inactive)	49.9 µM (inactive)
CCCN(CCCC(NC(C)=O)C(=O)NCc1ccccc1)C(=O)N(CCCl)N=O (stereo not given)	5.83 µM (inactive)	3.09 µM (inactive)	6.87 µM (inactive)	31.7 µM (inactive)	17.1 µM (inactive)	> 100 µM (inactive)	16.9 µM (inactive)	21.1 µM (inactive)	2.11 µM (inactive)	14.4 µM (inactive)	> 100 µM (inactive)	> 100 µM (inactive)	> 100 µM (inactive)	17.7 µM (inactive)	8.75 µM (inactive)	20.9 µM (inactive)	5.13 µM (inactive)	> 100 µM (inactive)	28.8 µM (inactive)	25.5 µM (inactive)
O=C1c2cccc3cccc(c23)C(=O)N1CCCNCCCNCCCCNCCCNCCCN1C(=O)c2cccc3cccc(c23)C1=O	2.67 µM (inactive)	3.97 µM (inactive)	0.479 µM (active)	5.48 µM (inactive)	5.05 µM (inactive)	1.68 µM (inactive)	3.25 µM (inactive)	2.74 µM (inactive)	2.55 µM (inactive)	4.06 µM (inactive)	0.449 µM (active)	3.78 µM (inactive)	2.36 µM (inactive)	4.46 µM (inactive)	2.12 µM (inactive)	4.67 µM (inactive)	2.28 µM (inactive)	5.26 µM (inactive)	6.7 µM (inactive)	13.1 µM (inactive)
CCCCCCCCCC(=O)N[C@@H](c1ccco1)[C@@H](O)C(=O)O[C@H]1C[C@@]2(O)[C@@H](OC(=O)c3ccccc3)[C@@H]3[C@]4(OC(C)=O)CO[C@@H]4C[C@H](O)[C@@]3(C)C(=O)[C@H](OC(C)=O)C(=C1C)C2(C)C	0.0318 µM (active)	2.92 µM (inactive)	0.0178 µM (active)	10 µM (inactive)	0.0296 µM (active)	0.00865 µM (active)	0.0187 µM (active)	0.00879 µM (active)	0.0111 µM (active)	0.0308 µM (active)	0.00695 µM (active)	0.101 µM (active)	< 0.005 µM (active)	0.0311 µM (active)	0.0385 µM (active)	0.00914 µM (active)	0.0442 µM (active)	0.178 µM (active)	0.0374 µM (active)	1.66 µM (inactive)
c1csc(-c2ccc(-c3cccs3)c3nsnc23)c1	33.9 µM (inactive)	> 65.2 µM (inactive)	8.32 µM (inactive)	2.23 µM (inactive)	35 µM (inactive)	16.5 µM (inactive)	9.68 µM (inactive)	0.327 µM (active)	26.3 µM (inactive)	37.8 µM (inactive)	0.11 µM (active)	22.4 µM (inactive)	17.9 µM (inactive)	> 33.5 µM (inactive)	22 µM (inactive)	2.04 µM (inactive)	> 90.8 µM (inactive)	0.141 µM (active)	> 65 µM (inactive)	43.4 µM (inactive)
COc1ccc(/C=C/c2cc(=O)cc(/C=C/c3ccc(OC)c(O)c3)o2)cc1O	3.14 µM (inactive)	2.48 µM (inactive)	2.82 µM (inactive)	4.52 µM (inactive)	3.39 µM (inactive)	3.5 µM (inactive)	2.42 µM (inactive)	1.99 µM (inactive)	1.76 µM (inactive)	2.31 µM (inactive)	2.14 µM (inactive)	2.05 µM (inactive)	1.44 µM (inactive)	5.21 µM (inactive)	2.43 µM (inactive)	2.52 µM (inactive)	4.84 µM (inactive)	1.98 µM (inactive)	2.04 µM (inactive)	3.83 µM (inactive)
CCC1(O)C(=O)OCc2c1cc1n(c2=O)Cc2cc3ccccc3nc2-1 (stereo not given)	0.0221 µM (active)	0.153 µM (active)	< 0.0122 µM (active)	0.0869 µM (active)	0.12 µM (active)	7.73 µM (inactive)	0.0455 µM (active)	0.221 µM (active)	< 0.0152 µM (active)	< 0.01 µM (active)	0.0405 µM (active)	0.857 µM (active)	0.0817 µM (active)	0.277 µM (active)	< 0.0188 µM (active)	0.308 µM (active)	0.0143 µM (active)	0.0237 µM (active)	0.417 µM (active)	0.0235 µM (active)
CCc1nc(N)nc(N)c1-c1ccc(Cl)c(/N=C/N(C)C)c1	15.3 µM (inactive)	38.8 µM (inactive)	30.3 µM (inactive)	> 87.3 µM (inactive)	> 90.4 µM (inactive)	> 100 µM (inactive)	6.03 µM (inactive)	61.7 µM (inactive)	19.2 µM (inactive)	52.5 µM (inactive)	57.8 µM (inactive)	81.3 µM (inactive)	45.9 µM (inactive)	> 100 µM (inactive)	28.6 µM (inactive)	65.6 µM (inactive)	58.9 µM (inactive)	77.3 µM (inactive)	> 100 µM (inactive)	> 100 µM (inactive)
